Source: patent US8193175B2, “Ruthenium complexes for treating cancers” (Universite de Strasbourg, priority 2004, dated 2012)

Columns and labels:
HCT116 cells = assay: Western blot of p53, p21 and phospho-histone H3 in HCT116 cells; format: cell-based, human; conditions: 10 μM
Protocol: FIG. 5: Detection of p53, p21 and of the phosphorylation of histone H3 in the HCT116 cells treated with CDR. The HCT116 cells were treated with the various compounds (10 μM) and for the periods of time indicated (24 hrs or 6 hrs). The proteins were extracted with a lysis buffer and were separated on 10% SDS-Page gel. After being transferred onto nitrocellulose, the p53, p21 proteins and histone H3 were detected by Western blot using anti-p53 (pAb1801), anti-p21 (1/200, Oncogene) antibody and anti-phospho serine 10 of histone H3 (1/2000, Santacruz).
(§1) For the purpose of determining the molecular mechanisms used by the ruthenium derivatives and comparing them with those induced by cisplatinum, the expression of p53, p73 p21 and bax in the A172 and HCT116 lines was analysed.

A172 cells [1] = assay: MTT test on A172 cells, combination with NCS or Taxol; format: cell-based, human; conditions: concentration bringing about 10% of the maximum effect; 48 hrs
Protocol: FIG. 7: The A172 cells were cultivated in plates with 96 wells in DMEM medium with 10% calf serum. At 30% confluence, the cells were treated for 48 hrs with cisplatinum, CDR6, NCS (Neocarzinostatin), Taxol or a combination of these drugs in the concentrations indicated. The quantity of cells present in the wells was evaluated by an MTT (MTT, Sigma) test, the reaction products of which are quantified with an Elisa plate reader (Metertech, USA) (490-650 nm). […] The graphs show an average of 8 points with the typical spacings over one experiment representative of 4 carried out. The thick black line indicates the IC50 for each graph.
The mechanisms induced by various anticancer drugs are different according to the mode of action of these drugs. […] NCS induces DNA double strand breaks, similar to those of gamma rays (Smith and Nicolaou 1996). Taxol disrupts the mitotic spindles (Oberlies and Kroll 2004).
A comparison was made using two doses of NCS and two doses of Taxol. The one enables one to expect the IC50, the other leads to a reduction by 10% of the cell viability after 48 hrs treatment. These two concentrations were combined with a concentration of ruthenium derivative or cisplatinum bringing about 10% of the maximum effect.

A172 glioblastoma cells = assay: Nucleus morphology and caspase 3 activation in A172 cells; format: cell-based, human
Excerpt: FIG. 2: A—The A172 cells were cultivated on glass slides. […] The cells were then fixed in 4% paraformaldehyde, permeabilised with 0.1% NP40 and marked with Hoechst dye (blue) and the anti-p20 antibody (active fragment of caspase 3, in red). The cells were then observed under the fluorescence microscope. B—Graphic representation of the number of cells with an apoptotic, fragmented or condensed nucleus. The bars are an average of two slides from one experiment representative of 3 carried out. C—In parallel, proteic extracts were prepared from cells treated with various drugs (cisplatinum 15 μM; CDR225 μM; CDR615 μM; CDR915 μM) and following denaturation the extracts were deposited on a !0% SDS-Page gel. After migration, the proteins were transferred onto nitrocellulose (Biorad, 0.2 μm) and the p20 fragment of the caspase 3 was detected by Western blot with an anti-p20 antibody (1/1000, R&D System).
(§2) The first step towards characterising the anticancerous effects of the compounds derived from ruthenium consists of testing their activity on tumoral lines kept in culture and comparing these effects on lines which have different characteristics as regards resistance to the anticancer treatments. Two lines of human glioblastomas (A172, HS683) and two lines of neuroblastomas (N2A and SH5Y) were used in order to test the cytostatic effects of the compounds according to the invention. Cisplatinum was chosen as the cytotoxic comparison agent. In a first approach, an MTT test was used to measure the activity of a mitochondrial enzyme, and this gives an estimate of the number of cells. Then, the cytotoxic effects of the compounds according to the invention were characterised in greater detail by analysing the morphology of the nucleus and the activation of caspase 3—two markers of cell apoptosis.

[2] = tested on: A172, HS683, N2A, and SH5Y; assay: MTT test on glioblastoma and neuroblastoma lines; format: cell-based, human; conditions: 48 hrs treatment; compared with cisplatinum
Protocol: FIG. 1: The A172 cells were cultivated on plates with 96 wells in DMEM medium with 10% calf serum. At 30% confluence, the cells were treated for 48 hrs with cisplatinum or the various compounds derived from ruthenium in the concentrations indicated (1, 5, 15, 50 μM). The quantity of cells present in the wells was evaluated by an MTT (MTT, Sigma) test of which the products of the reaction are quantified with an Elisa plate reader (Metertech, USA) (490-650 nm). The results obtained were related to the values of the control condition (100% viability). The graphs show an average of 8 points with the typical spacings over one experiment representative of 4 carried out. The thick black line indicates the IC50 for each graph.
TABLE 2: a summary of the results obtained on various cell lines and primary glial cultures. The experiments were carried out under the same conditions as those described for the A172 cells. Each IC50 is an indicative value obtained over 4 independent experiments.
as §2

[3] = tested on: 2008/CMV and 2008/ATP7B cells; assay: MTT test on 2008/CMV and 2008/ATP7B cells; format: cell-based; conditions: 48 hrs
Protocol: FIG. 6: The 2008/CMV and 2008/ATP7B cells (contributed by Dr. Howell) were cultivated in plates with 96 wells in DMEM medium with 10% calf serum. At 30% confluence, the cells were treated for 48 hrs with cisplatinum or the various compounds derived from ruthenium in the concentrations indicated (1, 5, 15, 50 μM). The quantity of cells present in the wells was evaluated by an MTT (MTT, Sigma) test. The results obtained were related to the values of the control condition (100% viability). The graphs show an average of 8 points with the typical spacings over one experiment representative of 3 carried out. The thick black line indicates the IC50 for each graph.
One of these mechanisms is the overexpression of the copper export pump (ATP7B) which expels cisplatinum from the cell. It has been shown that this molecule is overexpressed in human tumours and that cell lines which overexpress this molecule are more resistant to cisplatinum and carboplatinum than control lines.
Two cell lines derived from 2008 cells (Katano, Safaei et al. 2003) were studied. One overexpresses the ATP7B pump, and the other only contains the control vector. The cytostatic activity of the cisplatinum and the CDR was tested in these two lines using the MTT test.

A172 cells [4] = assay: Western blot of p53, p73, p21 and Bax in A172 cells; format: cell-based, human
Protocol: FIG. 3: Detection of p53 and p73 in A172 cells treated with CDR. The A172 cells were treated with the concentrations indicated (2, 5 or 10 μM) with the various compounds and for the periods of time indicated (24 hrs or 6 hrs). The proteins were extracted with a lysis buffer and were separated on 10% SDS-Page gel. After being transferred onto nitrocellulose, the p53 and p73 proteins were detected by Western blot using anti-p53 (pAb1801) and anti-p73 (1/200, Ab2, Oncogene) antibody.
FIG. 4: Detection of p21 and Bax in A172 cells treated with CDR. The A172 cells were treated with the various compounds (10 μM) for 24 hrs. The proteins were extracted with a lysis buffer and were separated on 10% SDS-Page gel. After being transferred onto nitrocellulose, the p21 and Bax proteins were detected by Western blot using anti-p21 (1/200, Oncogene) and anti-Bax (1/2000, Santacruz) antibody.
as §1

SMILES: CN(C)Cc1cccc[c]1[Ru+].CP(C)c1ccccc1.F[P-](F)(F)(F)(F)F.c1ccccc1 [Compound 6, [Ru (η^6-C6H6)-2-(CH2NMe2)—C6H4—(PMe2Ph)]PF6]
- increase in expression of p21 and inhibition of phosphorylation of histone H3 (HCT116 cells): identical for CDR 6 and cisplatinum
- induction of p53 (HCT116 cells; 6 hrs to 24 hrs): induction of p53
- effectiveness of co-treatment with NCS or Taxol (A172 cells [1]): significantly more effective in relation to a co-treatment with cisplatinum
- nuclear condensation and fragmentation (A172 glioblastoma cells; 48 hrs treatment): induce nuclear condensation and fragmentation characteristic of apoptosis
- proteic levels of the active fragment of caspase 3 (Western blot) (A172 glioblastoma cells; cisplatinum 15 μM, CDR6 15 μM, CDR9 15 μM): increasing the proteic levels of the active fragment of caspase 3
- reduction of the number of tumoral cells (MTT) [2]: at a concentration similar to or lower than that of cisplatinum
- sensitivity of the line expressing ATP7B relative to the control line (MTT) [3]: equivalent to that of the control line
- expression of p21 and Bax (A172 cells [4]; 10 μM, 24 hours treatment): induces the expression of p21 and Bax
- p53 proteic levels (A172 cells [4]; 6 hrs treatment): induce p53
- p53 proteic levels (A172 cells [4]; 24 hrs treatment): no effect
